Test results reported in patent US11666572B2, “Treatment of HER2 positive cancers” (Seagen Inc., priority 2017, dated 2023).
Where two headings read alike, the source gives them in different places.

What was measured:
[1] = cited from earlier work
[2] = test system: Calu-3 NSCLC xenograft model; experiment: Calu-3 NSCLC xenograft model, tumor growth inhibition; type: in vivo, Mice; details: study day 28, tucatinib 50 mg/kg orally twice per day, trastuzumab 20 mg/kg IP once every three days, from study day 7
Experimental: (§1) The term “tumor growth inhibition (TGI) index” refers to a value used to represent the degree to which an agent (e.g., tucatinib, an anti-HER2 antibody, or a combination thereof) inhibits the growth of a tumor when compared to an untreated control. The TGI index is calculated for a particular time point (e.g., a specific number of days into an experiment or clinical trial) according to the following formula:
(§2) [formula] where “Tx Day 0” denotes the first day that treatment is administered (i.e., the first day that an experimental therapy or a control therapy (e.g., vehicle only) is administered) and “Tx Day X” denotes X number of days after Day 0.
(§3) For the Calu-3 study, tucatinib was administered orally at a dose of 50 mg/kg twice per day for 21 days, beginning on study day 7. […] A vehicle-only group was included as a negative control.

[3] = test system: NCI-H2170 NSCLC xenograft model; experiment: NCI-H2170 NSCLC xenograft model, tumor growth inhibition; type: in vivo, Mice; details: study day 39, tucatinib 50 mg/kg orally twice per day, trastuzumab 20 mg/kg IP twice per week, from study day 18
Experimental: as §1, §2, §3
For the NCI-H2170 study, tucatinib was administered orally at a dose of 50 mg/kg twice per day for 21 days, beginning on study day 18. […] A vehicle-only group was included as a negative control.

CTG-0121 CRC PDX model = experiment: CTG-0121 CRC PDX model, tumor growth inhibition; type: in vivo, Mice; details: study day 29, tucatinib 50 mg/kg orally twice per day, trastuzumab 20 mg/kg IP once every three days
Experimental: as §1, §2
(§4) Tucatinib was administered orally at a dose of 50 mg/kg twice per day for 28 days (study days 0-27). […] A vehicle-only group was included as a negative control.

CTG-0784 CRC PDX model = experiment: CTG-0784 CRC PDX model, tumor growth inhibition; type: in vivo, Mice; details: study day 29, tucatinib 50 mg/kg orally twice per day, trastuzumab 20 mg/kg IP once every three days
Experimental: as §1, §2, §4

CTG-0383 CRC PDX model = experiment: CTG-0383 CRC PDX model, tumor growth inhibition; type: in vivo, Mice; details: study day 29, tucatinib 50 mg/kg orally twice per day, trastuzumab 20 mg/kg IP once every three days
Experimental: as §1, §2, §4

[4] = test system: CTG-0137 esophageal cancer PDX model; experiment: CTG-0137 esophageal cancer PDX model, tumor growth inhibition; type: in vivo, Mice; details: study day 15, tucatinib 50 mg/kg orally twice per day, trastuzumab 20 mg/kg IP once every three days
Experimental: as §1, §2, §4

[5] = test system: CTG-0138 esophageal cancer PDX model; experiment: CTG-0138 esophageal cancer PDX model, tumor growth inhibition; type: in vivo, Mice; details: study day 30, tucatinib 50 mg/kg orally twice per day, trastuzumab 20 mg/kg IP once every three days
Experimental: as §1, §2, §4

[6] = test system: CTG-0927 HER2 positive cholangiocarcinoma PDX model; experiment: CTG-0927 cholangiocarcinoma PDX model, tumor growth inhibition; type: in vivo, Mice; details: study day 28, tucatinib 50 mg/kg orally twice per day, trastuzumab 20 mg/kg IP once every three days
Experimental: as §1, §2, §4

[7] = test system: GXA 3038 gastric cancer PDX model; experiment: GXA 3038 gastric cancer PDX model, tumor growth inhibition; type: in vivo, Mice; details: study day 28, tucatinib 50 mg/kg orally twice per day, trastuzumab 20 mg/kg IP once every three days
Experimental: as §1, §2, §4

[8] = test system: GXA 3039 gastric cancer PDX model; experiment: GXA 3039 gastric cancer PDX model, tumor growth inhibition; type: in vivo, Mice; details: study day 29, tucatinib 50 mg/kg orally twice per day, trastuzumab 20 mg/kg IP once every three days
Experimental: as §1, §2, §4

[9] = test system: GXA 3054 gastric cancer PDX model; experiment: GXA 3054 gastric cancer PDX model, tumor growth inhibition; type: in vivo, Mice; details: study day 17, tucatinib 50 mg/kg orally twice per day, trastuzumab 20 mg/kg IP once every three days
Experimental: as §1, §2, §4

[10] = Clinical safety observations in patients; type: in vivo, human; details: patients on tucatinib studies
Excerpt: Cardiac function is therefore monitored closely.
Monitoring of liver function tests is required for any patient taking tucatinib.
Patients with brain metastases are at risk for occurrence of AEs due to the presence of CNS lesions, progression of disease and toxicities potentially related to study treatment. On occasion, treatment of brain metastases with systemic or radiation therapy has been associated with localized edema thought to be due to treatment effect and not tumor progression. […] The patient's symptoms responded rapidly and completely to systemic corticosteroids. It was not known if this patient's symptoms were due to local progression or treatment-related toxicity. […] The patient was taken for surgical resection, and found to have no viable tumor. The resected lesion was thought to represent treatment-related necrosis.

Calu-3 cells = experiment: Response of Calu-3 cells in vitro; type: cell-based; details: previously demonstrated
NCI-H2170 cells = experiment: Response of NCI-H2170 cells in vitro; type: cell-based; details: previously demonstrated
[11] = attributed to anti-EGFR/HER1 activity of the drug; cited from earlier work
[12] = test system: HER2 positive metastatic CRC (wild-type KRAS exon 2); details: HERACLES patients, previous treatment with cetuximab or panitumumab; cited from earlier work
[13] = Table 11, strong inhibitors or inducers of CYP3A4
[14] = Table 10, strong inhibitors and inducer of CYP2C8

NC(=O)N1c2ccccc2C=Cc2ccccc21 [Carbamazepine]
Elimination Half-life [1, 13]: 25 to 65 h

CC[C@H]1OC(=O)[C@H](C)[C@@H](O[C@H]2C[C@@](C)(OC)[C@@H](O)[C@H](C)O2)[C@H](C)[C@@H](O[C@@H]2O[C@H](C)C[C@H](N(C)C)[C@H]2O)[C@](C)(OC)C[C@@H](C)C(=O)[C@H](C)[C@@H](O)[C@]1(C)O [Clarithromycin]
Elimination Half-life [1, 13]: 3 to 7 h

C#C[C@]1(O)CC[C@H]2[C@@H]3CCC4=Cc5oncc5C[C@]4(C)[C@H]3CC[C@@]21C [Danazol]
Elimination Half-life [1, 13]: 24 to 26 h

CC[C@H]1OC(=O)[C@H](C)[C@@H](O[C@H]2C[C@@](C)(OC)[C@@H](O)[C@H](C)O2)[C@H](C)[C@@H](O[C@@H]2O[C@H](C)C[C@H](N(C)C)[C@H]2O)[C@](C)(O)C[C@@H](C)C(=O)[C@H](C)[C@@H](O)[C@]1(C)O [Erythromycin]
Elimination Half-life [1, 13]: 2 h

Cc1ccc(C)c(OCCCC(C)(C)C(=O)O)c1 [Gemfibrozil]
Elimination Half-life [1, 14]: 1 to 2 h

CCC(C)n1ncn(-c2ccc(N3CCN(c4ccc(OCC5COC(Cn6cncn6)(c6ccc(Cl)cc6Cl)O5)cc4)CC3)cc2)c1=O (stereo not drawn) [Itraconazole]
Elimination Half-life ([1]; Table 11, single dose): 21 h | Elimination Half-life ([1]; Table 11, steady state): 64 h

CC(C)(O)c1ccccc1CC[C@@H](SCC1(CC(=O)O)CC1)c1cccc(/C=C/c2ccc3ccc(Cl)cc3n2)c1 [Montelukast]
Elimination Half-life [1, 14]: 3 to 6 h (drug insert)

CCc1nn(CCCN2CCN(c3cccc(Cl)c3)CC2)c(=O)n1CCOc1ccccc1 [Nefazodone]
Elimination Half-life [1, 13]: 2 to 4 h

O=C1NC(=O)C(c2ccccc2)(c2ccccc2)N1 [Phenytoin]
Elimination Half-life [1, 13]: 7 to 42 h

CCc1ccc(CCOc2ccc(CC3SC(=O)NC3=O)cc2)nc1 (stereo not drawn) [Pioglitazone]
Elimination Half-life [1, 14]: 3 to 7 h

O=c1c(O)c(-c2ccc(O)c(O)c2)oc2cc(O)cc(O)c12 [Quercetin]
Elimination Half-life [1, 14]: <2 h

CN(CCOc1ccc(CC2SC(=O)NC2=O)cc1)c1ccccn1 (stereo not drawn) [Rosiglitazone]
Elimination Half-life [1, 14]: 16 to 24 h

CC[C@H]1OC(=O)[C@H](C)C(=O)[C@H](C)[C@@H](O[C@@H]2O[C@H](C)C[C@H](N(C)C)[C@H]2O)[C@](C)(OC)C[C@@H](C)C(=O)[C@H](C)[C@H]2N(CCCCn3cnc(-c4cccnc4)c3)C(=O)O[C@]12C [Telithromycin]
Elimination Half-life [1, 13]: 10 h

COc1cc(Cc2cnc(N)nc2N)cc(OC)c1OC [Trimethoprim]
Elimination Half-life [1, 14]: 8 to 10 h

Cc1cc(Nc2ncnc3ccc(NC4=NC(C)(C)CO4)cc23)ccc1Oc1ccn2ncnc2c1 [Tucatinib, tucatinib]
Observed TGI (%) [2]: 63% | Observed TGI (%) [3]: 91% | Observed TGI (%) (CTG-0121 CRC PDX model): 104% | Observed TGI (%) (CTG-0784 CRC PDX model): 50% | Observed TGI (%) (CTG-0383 CRC PDX model): 117% | Observed TGI (%) [4]: 49% | Observed TGI (%) [5]: 69% | Observed TGI (%) [6]: 48% | Observed TGI (%) [7]: 110% | Observed TGI (%) [8]: 48% | Observed TGI (%) [9]: 65% | Elevation of liver function tests [10]: Grade 3 and 4 elevation of LFTs have been seen in some patients | Response in vitro (Calu-3 cells): good responses | Response in vitro (NCI-H2170 cells): good responses

C[C@@H](c1ncncc1F)[C@](O)(Cn1cncn1)c1ccc(F)cc1F [Voriconazole]
Elimination Half-life (hours) [1, 13]: Dose dependent

CC(=O)N1CCN(c2ccc(OCC3COC(Cn4ccnc4)(c4ccc(Cl)cc4Cl)O3)cc2)CC1 (stereo not drawn) [ketoconazole (systemic), ketoconazole]
Elimination Half-life [1, 13]: 2 to 8 h

CS(=O)(=O)CCNCc1ccc(-c2ccc3ncnc(Nc4ccc(OCc5cccc(F)c5)c(Cl)c4)c3c2)o1 [lapatinib]
Toxicities [11]: rash, diarrhea, and fatigue

panitumumab
ORR on previous treatment [12]: 0%
